Test results reported in ChEMBL document CHEMBL3132781, “Biologically active binaphthol-scaffolded imidazolium salts” (Medchemcomm, 2014).
Calls of active or inactive are those of the source. The calls are words filed in the database; no cut-off is given here.

Assays:
[1] = Induction of chloride efflux in egg yolk phosphatidylcholine large unilamellar vesicles assessed as increase of lucigenin's fluorescence relative to EYPC; format: physicochemical
[2] = system: Listeria seeligeri; assay: Antibacterial activity against Listeria seeligeri ATCC 35967 assessed as complete inhibition of bacterial growth measured upto 24 hrs by broth dilution assay; format: functional; conditions: ATCC 35967, 24 h
[3] = system: Bacillus thuringiensis; assay: Antibacterial activity against Bacillus thuringiensis HD73 assessed as complete inhibition of bacterial growth measured upto 24 hrs by broth dilution assay; format: functional; conditions: HD73, 24 h
[4] = system: Alcaligenes faecalis; assay: Antibacterial activity against Alcaligenes faecalis ATCC 8750 assessed as complete inhibition of bacterial growth measured upto 24 hrs by broth dilution assay; format: functional; conditions: ATCC 8750, 24 h
[5] = system: Escherichia coli; assay: Antibacterial activity against Escherichia coli DH5[alpha] assessed as complete inhibition of bacterial growth measured upto 24 hrs by broth dilution assay; format: functional
[6] = Hemolysis in human erythrocytes upto 100 uM after 1 hr; format: ADME, cell-based, Erythrocyte; conditions: read-out: Activity
[7] = system: Escherichia coli; assay: Antibacterial activity against Escherichia coli DH5[alpha] at 10 uM measured upto 24 hrs by broth dilution assay; format: functional, organism-based
[8] = system: Escherichia coli; assay: Antibacterial activity against Escherichia coli DH5[alpha] at 50 uM measured upto 24 hrs by broth dilution assay; format: functional, organism-based
[9] = system: HEK-293T; assay: Cytotoxicity against human HEK293T cells after 24 hrs by MTT assay; format: cell-based
[10] = system: Escherichia coli; assay: Antibacterial activity against Escherichia coli SK037 with Tn10 insertion inactivated TolC measured at 5 to 10 fold lower MIC within 2 hrs by broth dilution assay; format: functional, organism-based
[11] = Hemolysis in human erythrocytes at 3 to 4 uM after 24 hrs; format: ADME, cell-based, Erythrocyte; conditions: read-out: Activity
[12] = Induction of chloride efflux in egg yolk phosphatidylcholine large unilamellar vesicles assessed as increase of lucigenin's fluorescence at 6.25 %mol relative to EYPC; format: physicochemical
[13] = system: Escherichia coli; assay: Antibacterial activity against Escherichia coli SK037 with Tn10 insertion inactivated TolC at 10 uM measured upto 24 hrs by broth dilution assay; format: functional, organism-based
[14] = system: Escherichia coli; assay: Antibacterial activity against Escherichia coli SK037 with Tn10 insertion inactivated TolC at 50 uM measured upto 24 hrs by broth dilution assay; format: functional, organism-based

## C[n+]1ccn(Cc2cc3ccccc3c(-c3c(O)c(Cn4cc[n+](C)c4)cc4ccccc34)c2O)c1.O=S(=O)([N-]S(=O)(=O)C(F)(F)F)C(F)(F)F.O=S(=O)([N-]S(=O)(=O)C(F)(F)F)C(F)(F)F
[1]
  EC50: Not Active
[2]
  MIC: > 100 µM
[3]
  MIC: > 100 µM
[4]
  MIC: > 100 µM
[5]
  MIC: > 100 µM

## CCCC[n+]1ccn(Cc2cc3ccccc3c(-c3c(O)c(Cn4cc[n+](CCCC)c4)cc4ccccc34)c2O)c1.O=S(=O)([N-]S(=O)(=O)C(F)(F)F)C(F)(F)F.O=S(=O)([N-]S(=O)(=O)C(F)(F)F)C(F)(F)F
[6]
  hemolysis at 1 h: < 10%
[1]
  EC50: Not Active
[7]
  Activity: inactive
[8]
  Activity: inactive
[9]
  IC50: 23.8 µM
[2]
  MIC: 30 µM
[3]
  MIC: > 100 µM
[4]
  MIC: > 100 µM
[5]
  MIC: > 100 µM

## CCCCCCCCCCCC[n+]1ccn(Cc2cc3ccccc3c(-c3c(O)c(Cn4cc[n+](CCCCCCCCCCCC)c4)cc4ccccc34)c2O)c1.O=S(=O)([N-]S(=O)(=O)C(F)(F)F)C(F)(F)F.O=S(=O)([N-]S(=O)(=O)C(F)(F)F)C(F)(F)F
[6]
  hemolysis at 1 h: < 10%
[1]
  EC50: 9.3 %molar
[9]
  IC50: 9.2 µM
[2]
  MIC: 25 µM
[3]
  MIC: 100 µM
[4]
  MIC: > 100 µM
[5]
  MIC: > 100 µM

## CCCCCCCC[n+]1ccn(Cc2cc3ccccc3c(-c3c(O)c(Cn4cc[n+](CCCCCCCC)c4)cc4ccccc34)c2O)c1.O=S(=O)([N-]S(=O)(=O)C(F)(F)F)C(F)(F)F.O=S(=O)([N-]S(=O)(=O)C(F)(F)F)C(F)(F)F
[10]
  Activity: Active
[11]
  hemolysis at 24 h, up to 4 µM: < 15%
[6]
  hemolysis at 1 h: < 10%
[12]
  Activity: 68%
[1]
  EC50: 4.62 %molar
[7]
  Activity: inactive
[8]
  Activity: inactive
[13]
  Activity: Active
[14]
  Activity: Active
[9]
  IC50: 11.7 µM
[2]
  MIC: 3 µM
[3]
  MIC: 4 µM
[4]
  MIC: > 100 µM
[5]
  MIC: > 100 µM

## CCCCCCCCCCCCCCCC[n+]1ccn(Cc2cc3ccccc3c(-c3c(O)c(Cn4cc[n+](CCCCCCCCCCCCCCCC)c4)cc4ccccc34)c2O)c1.O=S(=O)([N-]S(=O)(=O)C(F)(F)F)C(F)(F)F.O=S(=O)([N-]S(=O)(=O)C(F)(F)F)C(F)(F)F
[1]
  EC50: 18.1 %molar
[2]
  MIC: > 100 µM
[3]
  MIC: > 100 µM
[4]
  MIC: > 100 µM
[5]
  MIC: > 100 µM
